This is an account of results in patent US11147219B2, “Methods and systems for growing plants using silicate-based substrates, cultivation of enhanced photosynthetic productivity and photosafening by utilization of exogenous glycopyranosides for endogenous glycopyranosyl-protein derivatives, and formulations, process and systems for the same” (Innovation Hammer, LLC, priority 2011, dated 2021).

Format in all cases: in vivo
Experiment [1] deals with radish "Cherry Bell" Raphanus sativus L. The experiment is described as follows: Greenhouse foliar treatment of radish, root dry weight. The protocol:
Plant responses to formulations of an alkyl-α-D-mannopyranose and an electron donating-aryl-α-D-mannopyranose were consistent with preferred binding tendencies to displace glucose from storage. Plants were maintained in automated greenhouses controlled for temperature, light and circulation. Environmental conditions during the course of the studies averaged 13:11 hour L:D photoperiod, 25°:20° C. day:night and 20% to 80% relative humidity. Sunlight was supplemented with electrical illumination to achieve photosynthetically active radiation levels ranging from 350 to 600 μmol photons·m^−2·s^−1 at the level of the phylloplane. Solutions for treated and control plants were applied within an hour, otherwise subjecting all plants to identical conditions consistent with good laboratory practices. Solutions applied to controls included nutrients and surfactants identical to the treatment solution, but without the active compound. General supplementation of foliar formulations included the following: 10-100 mM ammonium salt; 1-6 ppm manganese, Mn-EDTA; and 5-10 ppm calcium, Ca-EDTA. For example, foliar solutions of 0.3 mM p-aminophenylmannopyranoside, hereafter referred to as APM, were supplemented with 23 mM ammonium sulfate, (NH4)2SO4, 3 ppm Mn and 6 ppm Ca; and Nutrient Control contained 23 mM (NH4)2SO4, 3 ppm Mn and 6 ppm Ca. The foliar concentrations of Mn and Ca were higher than those specified previously because of the low volumes of foliar applications relative to hydroponic root immersion volumes, and they were particularly effective in combination with foliar applications of compounds because they supported high rates of productivity in the treated plants without phytotoxicity. Compounds for experimentation included the following: methyl-α-D-mannopyranoside (MeM), APM, and methyl-α-D-glucopyranoside (MeG). All foliar solutions were formulated with 1 gm/liter surfactant blend consisting of 0.5 gram DowCorning Q5211 dispersed into 1.5 grams BASF Pluronic L62. As a matter of course, untreated controls that foliar nutrients and wetting agents were not introducing artifacts. The standard volume for foliar application of experimental treatments was 200 liters/hectare. Identical volumes of foliar spray per tray of plant cultures were applied mechanically in a single pass. Controls were placed in the same location and given identical irrigation and handling as the treated plants. To compare the effects of treatments under tightly controlled conditions, plants were cultured, harvested, cleaned and weighed as per previously described methods. Treated plants were statistically analyzed in comparisons against controls. Each survey population held sufficient replicate sample numbers to make meaningful statistical analyses utilizing SPSS® software. Significance was determined at the 95% confidence interval (CI) of the difference. Counts of population numbers are denoted as “n” values. For experiments, radish “Cherry Bell” Raphanus sativus L., a root crop was planted and treated. […] Therefore, least concentrations were selected for statistical experimentation; and 200 l/ha foliar 1 mM MeM or 0.3 mM APM in nutrient-supplemented formulations were applied to 5 cm tall sprouts; while, Nutrient Controls were given foliar applications of identical solutions without the α-D-glycopyranosides; and no foliar solutions were applied to untreated controls which were otherwise identically cultivated and irrigated. For our quantification experiments, when improvements of root productivity over those of nutrient controls were visibly discernible 12 d after treatment, all populations of controls and treatments were harvested, and individual dry weights of treatment and control populations were analyzed.

Experiment [2] has as its system radish (Raphanus sativus L., cultivar "Cherry Bell"). In words: Radish seed germination and seedling growth, nutrient omission media. The following applies: glycoside alone, no divalent cations. The protocol: Treatment of seeds and seedlings by aqueous solutions is exemplified by mannosides supplemented with soluble divalent cations in complete mannosides formulations. […] Benefits of such exemplary seed priming methods are as follows: Germination and early growth of radish (Raphanus sativus L., cultivar “Cherry Bell”) and Swiss Chard (Beta vulgaris subspecies cicla L., cultivar “Fordhook® Giant”) were tested for response to α-mannosides supplemented with Ca^2+ and/or Mn^2+. Rapid assays of radish seed germination and growth used hydroponic cultures with no solid medium; longer experiments with Swiss Chard used a 2-5 mm substratum of 700 μm diameter glass microbeads. Neutralization of glass microbeads may be undertaken with dilute mildly acidic solution titrated to pH 6; for example, with mineral acids such as hydrochloric acid, sulfuric acid, nitric acid, and the like; organic acids such as uronic, citric, malic, lactic, salicylic, ascorbic, succinic, oxaloacetic, ketoglutaric, fumaric acids, and amino acids, and the like; artificial biological buffering agents such as TRIS, BIS TRIS, MES, MOPS, HEPES, and the like; fertilizers; and most preferably, phosphates; and the most highly preferred compounds are combinations of compounds in a pH 6-buffer that provide major nutrients for plants, such as MAP with DKP or DAP with MKP; and the like. When test medium was added, the glass microbeads formed an even layer, drawing liquid to the surface by capillary action. Seeds were examined to exclude aberrantly large, small, or damaged seeds, and were placed on the surface of the substratum. For experiments using post-germination seedlings, seeds were germinated in deionized water prior to exposure to nutrient media. A seed with an emerged radicle >1 mm was recorded as germinated, and germinated seeds were counted daily, until 95% germination. There was no visible evidence of either desiccation or waterlogging effects. Glass microbeads were removed by immersion and agitation in water, or manually with fine forceps. Harvested plants were oven-dried to determine dry weight. Treatment and control solutions were prepared by dissolving nutrients in deionized ultrapure water.
Growth media were based on omission or inclusion of glycosides and targeted divalent cations. Triose is the abbreviation for α-1,3-α-1,6 mannotriose) and MEM is methyl-α-D-mannoside. Terminology used herein indicates the omission or inclusion of nutrients: 000=control medium with no glycoside, Ca^2+ or Mn^2+; MeMOO=medium with MeM, but no Ca^2+ or Mn^2+; MeMCaO=medium with MeM and Ca^2+, but no Mn^2+, OCaMn=medium with no MeM, but with Ca^2++Mn^2+; and so on. Similar terminology is used for media containing triose. Results cited are means±SE. […]

Another experiment concerns Radish seedlings. The experiment is described as follows: Radish seedling assay, immersion in nutrient solution with α-mannosides. On the procedure: Plants were cultured in research facilities and consistency of response to treatments was achieved by supplementation with chelated calcium and manganese. All plants were regularly given modified Hoagland water-culture nutrients. […] Controls were placed in the same location and all plants were given the same irrigation, fertilizers, and handling, but without the experimental compounds. Plants were matched to controls and treated within a week of emergence of cotyledon and true leaves. The performance of compounds was evaluated by comparing means of individual dry weights of shoots and roots. Statistics applied two-tailed Student's t-test with p-values significant within 95% confidence intervals. Counts of populations are “n” values and standard error is denoted “±SE.” Specialty chemicals included the following: tetramethyl-β-D-glucoside (TMG); tetraacetyl-D-glucopyranose (TAG); pentaacetyl-α-D-mannopyranose (MP); p-amino-phenyl-α-D-mannoside (APM); methyl-α-D-mannoside (MeM) and methylglucoside (MeG). MPG was synthesized. 2,3,4,6-tetra-O-acetyl-D-mannopyranose (αβ) was utilized. As required, MP and APM were dissolved in a lower aliphatic alcohol prior to dilution in aqueous media.
Assay—Radish seedlings were treated with α-mannosides after emergence of radicles. Seedlings were matched and transferred to Nutrient Control or treatment solutions. Assays were maintained under environmental conditions as follow: Photosynthetically active radiation 100 μEin·m^−2·sec^−1, diel cycle of 16:8 h light:dark, 26:26° C.

The test system of experiment [3] is Swiss Chard (Beta vulgaris subspecies cicla L., cultivar "Fordhook Giant"). The experiment is described as follows: Swiss Chard germination and seedling growth on glass microbead substratum. To be noted: media containing 100 μM MeM. The protocol:
Treatment of seeds and seedlings by aqueous solutions is exemplified by mannosides supplemented with soluble divalent cations in complete mannosides formulations. […] Benefits of such exemplary seed priming methods are as follows: Germination and early growth of radish (Raphanus sativus L., cultivar “Cherry Bell”) and Swiss Chard (Beta vulgaris subspecies cicla L., cultivar “Fordhook® Giant”) were tested for response to α-mannosides supplemented with Ca^2+ and/or Mn^2+. Rapid assays of radish seed germination and growth used hydroponic cultures with no solid medium; longer experiments with Swiss Chard used a 2-5 mm substratum of 700 μm diameter glass microbeads. […] A seed with an emerged radicle >1 mm was recorded as germinated, and germinated seeds were counted daily, until 95% germination. […]

In the next experiment the test system is corn. The experiment is described as follows: Corn cultured in 700 μm silicate beads, root treatment. To be noted: 1 mM IG. On the procedure:
Individual plants were started from seeds, bulbs, or vegetative clones, inserted into containers of pre-moistened microbeads. Seedlings included ryegrass and corn; bulbs were of Crocus and paperwhite narcissus; and vegetative cuttings were from Coleus. Seeds generally germinated and were selected according to day of emergence of first roots as control and treatment sets. Roots were treated thereafter.
(§1) Plants were cultivated under controlled environmental conditions as follow: GE Ecolux® plant and aquarium F40T12 fluorescent illumination, photosynthetically active radiation (PAR) of 100 μEin·m^−2·s^−1, diel cycle of 16:8 h light:dark, 28:26° C., 10% to 20% relative humidity. Indoxyl glycopyranoside (IG) was formulated in water and applied and controls were given equal volumes of water without IG. […] Clear plastic 500 cc containers, perforated for drainage, were filled to a depth of 10 cm with up to 900 grams of microbeads each. Initially, basal plates of bulbs were immersed 1 cm into moistened 700 μm nmd silicate beads to initiate rooting. Within a week, first roots emerged and each bulb was treated with 0.1 ml of aqueous 10 mM IG. Controls were treated with addition of 0.1 ml water to their media. After 8 h uptake of the treatments, fertigation resumed in a manner consistent with pH-control. In another case, 0.3 mM 4-amino-phenyl-α-D-mannopyranoside (APM) was dissolved in water with 3 ppm Mn as EDTA, 6 ppm Ca as EDTA. A solution of the formulation was applied to rooted Crocus. APM-treated plants were compared to plants given identical control formulation without APM. Within five hours of treatment and, through fertigation, thereafter, all container cultures were regularly given equal volumes of nutribead solution. Controls were placed side-by-side and cultivated, likewise.
For all experiments, at 7 d to 14 d after treatment, microbeads were saturated with water. Immediately, individual plants gently were pulled and lifted out of the water-saturated silicate microbeads by hand. […] For paperwhites, volumes of entire roots were measured by displacement of water in glass beakers. […]

The next experiment has as its system paperwhite narcissus. The experiment is described as follows: Paperwhite narcissus bulbs cultured in 700 μm silicate beads, root treatment. To be noted: 16 days after treatment; n=6; p=0.01; controls 30 cc. On the procedure:
as §1, with “Within five hours of treatment and, through fertigation, thereafter, all container cultures were regularly given equal volumes of nutribead solution. Controls were placed side-by-side and cultivated, likewise.” left out
[…] For paperwhites, volumes of entire roots were measured by displacement of water in glass beakers. […]

Several values for one entry are separate records, joined by “and”; a condition that tells them apart may be missing. Identical values can stand only once.

In the case of `CO[C@H]1O[C@H](CO)[C@@H](O)[C@H](O)[C@@H]1O` [MeM, methyl-α-D-mannopyranoside], in experiment [1] (foliar 1 mM with nutrients), the “root mean dry weight over the Nutrient Control” value was “highly significant (n=72; p=0.001) increase”. In experiment [1] (foliar 1 mM, 200 l/ha, harvest 12 d after treatment, n=72, p=0.001), the “root weight increase over controls” value is 30%. In addition, in experiment [1] (foliar, radish), the “active concentration applied for growth response” value was determined as 1 mM. The “effect on plant growth / seedling yields without Ca2+ and Mn2+” value in experiment [2] was “no significant effect”. The “enhancement of mean dry weight over Nutrient Control” value is 12% and ~11% in the experiment on Radish seedlings (25 μM, 48 h); 11% in the experiment with Radish seedlings (50 μM, 48 h); 11% with Radish seedlings (500 μM, 48 h). Moreover, the “mean dry weight of whole plants” value with Radish seedlings (25 μM, 48 h) came out at 10 mg; in the experiment on Radish seedlings (50 μM, 48 h), 11 mg; with Radish seedlings (100 μM, 48 h), 10.9 mg; in the experiment on Radish seedlings (500 μM, 48 h) it was 10.3 mg. Also, the “visual comparison with Nutrient Control” value in the experiment with Radish seedlings (500 μM, 24 h) was “enhanced pigmentation and general growth”. In the experiment with Radish seedlings (48 h, 1 mM TAM, 100 μM MP, 25 μM to 500 μM MeM, 10 μM APM), the “growth response compared to Nutrient Control (visual)” value is given as “advanced growth responses”. Also, the “germination rates compared with media without the glycoside” value in experiment [3] was “consistently higher”.

Consider Indoxyl glycopyranoside [IG], for which the taproot total length with corn (after a week, control 5 cm) came to 7 cm. Moreover, in the experiment with corn (control plant 0.2 g), the “dry weight of entire plant” value stood at 0.3 g. Moreover, the “dry weight of separated roots” value with corn (control roots 0.03 g) came to 0.04 g. Further, the mean root volume with paperwhite narcissus came to 37 cc per plant.
